Like-named read-outs stand apart in the source and are kept apart here.

The source of these data is patent publication US11440913B2, “Aminoimidazopyridazines as kinase inhibitors” (BRISTOL-MYERS SQUIBB COMPANY, priority 2017, dated 2022).

Assay [1] deals with His-GST-TVMV-hRIPK1(1-324) (Homo sapiens (Human), UniProt Q13546). Briefly: RIPK1 HTRF Binding Assay. Conditions: HTRF binding, 1 h at rt; read-out: RIPK1 (IC50). In outline:
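HTRF probe-displacement binding: 1 nM His-GST-TVMV-hRIPK1(1-324) (baculovirus construct), 90.6 nM probe, 0.2 nM anti-GST-Tb in 20 mM HEPES, 10 mM MgCl2, 0.015% Brij-35, 4 mM DTT, 0.05 mg/mL BSA. Incubated 1 h at rt; FRET 520/495 nm ratio, inhibition relative to DMSO-only wells.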
(In TR-FRET formats the signal depends on donor and acceptor labels being close together.)

The subject of assay [2] is MLKL phosphorylation in HT29-L23 human colorectal adenocarcinoma cells. The assay is described as follows: MLKL Phosphorylation High-Content Assay. It counts as cell-based. Conditions: 6 h, necroptosis induced with TNFα, SMAC mimetic and Z-VAD, read-out: pMLKL (IC50). Put shortly: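 HT29-L23 cells pretreated 30 min at 37 °C with compound (6.25 to 0.106 μM final), then necroptosis induced with TNFα 35 ng/mL, SMAC mimetic 700 nM and Z-VAD 140 nM for 6 h. Fixed cells immunostained for MLKL pS358 and imaged; IC50 and Ymax from 4-parameter logistic fit.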

Chain of His-GST-TVMV-hRIPK1(1-324) (Q13546 1-324): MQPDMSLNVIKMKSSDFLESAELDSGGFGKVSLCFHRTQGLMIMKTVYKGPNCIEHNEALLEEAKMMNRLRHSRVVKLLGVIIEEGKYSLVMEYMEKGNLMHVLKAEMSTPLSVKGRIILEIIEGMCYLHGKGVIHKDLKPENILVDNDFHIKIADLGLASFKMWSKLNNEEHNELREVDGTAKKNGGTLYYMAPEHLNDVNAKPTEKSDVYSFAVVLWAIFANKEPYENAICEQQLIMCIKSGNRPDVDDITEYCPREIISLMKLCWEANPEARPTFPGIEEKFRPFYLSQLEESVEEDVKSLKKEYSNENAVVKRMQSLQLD

By IC50 is commonly meant the concentration that gives 50% inhibition. On to `CC(=O)Nc1cn2nc(-c3cc(F)c(F)c(C(=O)N[C@H](C)c4cc(OC(F)(F)F)ccc4F)c3)ccc2n1` [Example 367, 5-{2-acetamidoimidazo [1,2-b]pyridazin-6-yl}-2,3-difluoro-N-[(1R)-1-[2-fluoro-5-(trifluoromethoxy)phenyl]ethyl] benzamide], for which the IC50 was 56 nM in assay [1] and 194 nM in assay [2] (Homo sapiens).

In the case of `COc1ncc(-c2ccc3nc(NC(C)=O)cn3n2)cc1C(=O)NC(C)c1ccccc1OC(F)(F)F` (centres unmarked) [Example 139, 5-{2-acetamidoimidazo[1,2-b]pyridazin-6-yl}-2-methoxy-N-{1-[2-(trifluoro-methoxy)phenyl]ethyl}pyridine-3-carboxamide], the IC50 in assay [1] turned out to be 15 nM; in assay [2] it was 25 nM.

Turning to `CC(=O)Nc1cn2nc(-c3cc(C(=O)N[C@@H](C)c4cc(OC(F)(F)F)ccc4F)cnc3C)ccc2n1` [Example 228, 5-{2-acetamidoimidazo[1,2-b]pyridazin-6-yl}-N-[(1S)-1-[2-fluoro-5-(trifluoromethoxy)phenyl]ethyl]-6-methylpyridine-3-carboxamide], the IC50 in assay [1] was 16 nM; in assay [2] (Homo sapiens) it was 193 nM.

`COc1ncc(-c2ccc3nc(NC(C)=O)cn3n2)cc1C(=O)NCc1ccccc1S(=O)(=O)C1CC1` [Example 158, N-{[2-(cyclopropanesulfonyl)phenyl]methyl}-5-{2-acetamidoimidazo[1,2-b]pyridazin-6-yl}-2-methoxypyridine-3-carboxamide]: the IC50 in assay [1] was 31 nM; in assay [2] (Homo sapiens), 336 nM.

Regarding `COc1nc(C)c(-c2ccc3nc(NC(C)=O)cn3n2)cc1C(=O)NCc1cccc(F)c1OCC1CCC1` [Example 288, N-{[2-(cyclobutylmethoxy)-3-fluorophenyl]methyl}-5-{2-acetamidoimidazo[1,2-b]pyridazin-6-yl}-2-methoxy-6-methylpyridine-3-carboxamide], the results for the IC50 in assay [1] and in assay [2] (Homo sapiens) were 6 nM and 1 nM, respectively.

For `[2H]C([2H])(Oc1c(F)cc(F)cc1CNC(=O)c1cc(-c2ccc3nc(NC(=O)CC)cn3n2)cnc1OC)C1CC1` [Example 243, N-({2-[cyclopropyl(deutero)methoxy]-3,5-difluorophenyl}methyl)-2-methoxy-5-{2-propanamidoimidazo[1,2-b]pyridazin-6-yl}pyridine-3-carboxamide], the values for the IC50 in assay [1] and in assay [2] (Homo sapiens) were 2 nM and 3 nM, respectively.

`CC(=O)Nc1cn2nc(-c3cc(C(=O)NCc4cccc(F)c4OCC4CC4)cnc3C)ccc2n1` [Example 232, N-{[2-(cyclopropylmethoxy)-3-fluorophenyl]methyl}-5-{2-acetamidoimidazo[1,2-b]pyridazin-6-yl}-6-methylpyridine-3-carboxamide]: the IC50 in assay [1] and in assay [2] (Homo sapiens) was 4 nM each time.

For `Cc1ncc(-c2ccc3nc(NC(=O)CO)cn3n2)cc1C(=O)NCc1cc(C(F)(F)F)ccc1F` [Example 183, N-{[2-fluoro-5-(trifluoromethyl)phenyl]methyl}-5-[2-(2-hydroxyacetamido)imidazo [1,2-b]pyridazin-6-yl]-2-methylpyridine-3-carboxamide], the half-inhibitory concentration (IC50) in assay [1] was 166 nM; in assay [2] (Homo sapiens), 392 nM.

For the molecule `CC(=O)Nc1cn2nc(-c3ccc(C)c(C(=O)N[C@H](C)c4cc(OC(F)(F)F)ccc4F)c3)ccc2n1` [Example 396, (R)-5-(2-acetamidoimidazo [1,2-b]pyridazin-6-yl)-N-(1-(2-fluoro-5-(trifluoromethoxy)phenyl)ethyl)-2-methylbenzamide], the IC50 in assay [1] was determined as 1 nM; in assay [2] (Homo sapiens) it was 7 nM.

For `COc1ncc(-c2ccc3nc(NC(C)=O)cn3n2)cc1C(=O)NCc1ccccc1N1CCOCC1` [Example 162, 5-{2-acetamidoimidazo[1,2-b]pyridazin-6-yl}-2-methoxy-N-{[2-(morpholin-4-yl)phenyl]methyl}pyridine-3-carboxamide], the figures for the IC50 in assay [1] and in assay [2] (Homo sapiens) were 64 nM and 140 nM, respectively.
